Assay [1] deals with His-BIR3 (241-356, XIAP) (Homo sapiens (Human), UniProt P98170). The experiment in a line: XIAP-BIR3/SMAC Homogeneous Time Resolved Fluorescence (HTRF) Assay. In kind it is binding. The following applies: fluorescein labeled SMAC peptide. The method, then:
B. XIAP-BIR3/SMAC Homogeneous Time Resolved Fluorescence (HTRF) Assay
(§1) Assays were performed in black, flat-bottom, 384-well plates.

Assay [2] has as its target His-BIR2-3 (125-356, C202A/C213G, XIAP) (Homo sapiens (Human), UniProt P98170, C202A/C213G). The assay can be described thus: XIAP-BIR2-3 Dimeric SMAC Peptide Homogeneous Time Resolved Fluorescence (HTRF) Assay. In kind it is binding. The conditions noted are these: fluorescein labeled dimeric SMAC peptide. The method, then: D. XIAP-BIR2-3 Dimeric SMAC Peptide Homogeneous Time Resolved Fluorescence (HTRF) Assay
as §1

Usually IC50 stands for the midpoint of a concentration-inhibition curve. Read a high IC50 as lower potency.

Regarding `CN[C@@H](C)C(=O)N[C@H](C(=O)N1Cc2cc(NC(=O)c3ccc(C(=O)N[C@H]4C[C@@H](C(=O)N[C@@H]5CCCc6ccccc65)N(C(=O)[C@@H](NC(=O)[C@H](C)NC)C(C)(C)C)C4)cc3)ccc2C[C@H]1C(=O)N[C@@H](COC)c1ccccc1)C(C)(C)C` [Example 13, N^1-((S)-2-((S)-3,3-Dimethyl-2-((S)-2-(methylamino)propanamido)butanoyl)-3-(((R)-2-methoxy-1-phenylethyl)carbamoyl)-1,2,3,4-tetrahydroisoquinolin-7-yl)-N^4-((3S,5S)-1-((S)-3,3-dimethyl-2-((S)-2-(methylamino)propanamido)butanoyl)-5-(((R)-1,2,3,4-tetrahydronaphthalen-1-yl)carbamoyl)pyrrolidin-3-yl)terephthalamide], the IC50 in assay [1] was found to be 12 nM; in assay [2], 11 nM.
As for `CN[C@@H](C)C(=O)N[C@H](C(=O)N1Cc2cc(C(=O)Nc3ncc(C(=O)N[C@H]4C[C@@H](C(=O)N[C@@H]5CCCc6ccccc65)N(C(=O)[C@@H](NC(=O)[C@H](C)NC)C(C)(C)C)C4)s3)ccc2C[C@H]1C(=O)N[C@@H]1CCCc2ccccc21)C(C)(C)C` [Example 21, (S)-2-((S)-3,3-Dimethyl-2-((S)-2-(methylamino)propanamido)butanoyl)-N^7-(5-(((3S,5S)-1-((S)-3,3-dimethyl-2-((S)-2-(methylamino)propanamido)butanoyl)-5-(((R)-1,2,3,4-tetrahydronaphthalen-1-yl)carbamoyl)pyrrolidin-3-yl)carbamoyl)thiazol-2-yl)-N^3-((R)-1,2,3,4-tetrahydronaphthalen-1-yl)-1,2,3,4-tetrahydroisoquinoline-3,7-dicarboxamide], the figures for the IC50 in assay [1] and in assay [2] were 17 nM and 6 nM, respectively.
For `CN[C@@H](C)C(=O)N[C@H](C(=O)N1Cc2cc(C(=O)Nc3nc(C(=O)N[C@H]4C[C@@H](C(=O)N[C@@H]5CCCc6ccccc65)N(C(=O)[C@@H](NC(=O)[C@H](C)NC)C(C)(C)C)C4)co3)ccc2C[C@H]1C(=O)N[C@@H]1CCCc2ccccc21)C(C)(C)C` [Example 22, (S)-2-((S)-3,3-Dimethyl-2-((S)-2-(methylamino)propanamido)butanoyl)-N^7-(4-(((3S,5S)-1-((S)-3,3-dimethyl-2-((S)-2-(methylamino)propanamido)butanoyl)-5-(((R)-1,2,3,4-tetrahydronaphthalen-1-yl)carbamoyl)pyrrolidin-3-yl)carbamoyl)oxazol-2-yl)-N^3-((R)-1,2,3,4-tetrahydronaphthalen-1-yl)-1,2,3,4-tetrahydroisoquinoline-3,7-dicarboxamide], the IC50 was 14 nM in assay [1] and 4 nM in assay [2].
In the same order, the values of `CN[C@@H](C)C(=O)N[C@H](C(=O)N1Cc2cc(C(=O)Nc3ccc4cc(C(=O)N[C@H]5C[C@@H](C(=O)N[C@@H]6CCCc7ccccc76)N(C(=O)[C@@H](NC(=O)[C@H](C)NC)C(C)(C)C)C5)[nH]c4c3)ccc2C[C@H]1C(=O)N[C@@H]1CCCc2ccccc21)C(C)(C)C` [Example 24, (S)-2-((S)-3,3-Dimethyl-2-((S)-2-(methylamino)propanamido)butanoyl)-N^7-(2-(((3S,5S)-1-((S)-3,3-dimethyl-2-((S)-2-(methylamino)propanamido)butanoyl)-5-(((R)-1,2,3,4-tetrahydronaphthalen-1-yl)carbamoyl)pyrrolidin-3-yl)carbamoyl)-1H-indol-6-yl)-N^3-((R)-1,2,3,4-tetrahydronaphthalen-1-yl)-1,2,3,4-tetrahydroisoquinoline-3,7-dicarboxamide] are 93 nM and 33 nM.
In the same order, the values of `CCN[C@@H](C)C(=O)N[C@H](C(=O)N1Cc2cc(OCc3ccc(C(=O)NC4C[C@@H](C(=O)NC5CCCc6ccccc65)N(C(=O)[C@@H](NC(=O)[C@H](C)NC)C(C)(C)C)C4)cc3)ccc2C[C@H]1C(=O)NC1CCCc2ccccc21)C(C)(C)C` (stereo partly drawn) [Example 39] are 89 nM and 65 nM.
The like results for `CN[C@@H](C)C(=O)N[C@H](C(=O)N1Cc2cc(NC(=O)c3ccc4c(ccn4C(=O)N[C@H]4C[C@@H](C(=O)N[C@@H]5CCCc6ccccc65)N(C(=O)[C@@H](NC(=O)[C@H](C)NC)C(C)(C)C)C4)c3)ccc2C[C@H]1C(=O)N[C@@H]1CCCc2ccccc21)C(C)(C)C` [Example 49, N^5—((S)-2-((S)-3,3-Dimethyl-2-((S)-2-(methylamino)propanamido)butanoyl)-3-(((R)-1,2,3,4-tetrahydronaphthalen-1-yl)carbamoyl)-1,2,3,4-tetrahydroisoquinolin-7-yl)-N^1-((3S,5S)-1-((S)-3,3-dimethyl-2-((S)-2-(methylamino)propanamido)butanoyl)-5-(((R)-1,2,3,4-tetrahydronaphthalen-1-yl)carbamoyl)pyrrolidin-3-yl)-1H-indole-1,5-dicarboxamide] were, in that order, 51 nM and 22 nM.
As for `CN[C@@H](C)C(=O)N[C@H](C(=O)N1Cc2cc(NC(=O)c3cccc4c3ccn4C(=O)N[C@H]3C[C@@H](C(=O)N[C@@H]4CCCc5ccccc54)N(C(=O)[C@@H](NC(=O)[C@H](C)NC)C(C)(C)C)C3)ccc2C[C@H]1C(=O)N[C@H](C)c1ccccc1F)C(C)(C)C` [Example 51], the IC50 was determined as 54 nM in assay [1] and 27 nM in assay [2].
The like results for `CN[C@@H](C)C(=O)N[C@H](C(=O)N1Cc2cc(NC(=O)c3cccc4c3ccn4C(=O)N[C@H]3C[C@@H](C(=O)N[C@@H]4CCCc5ccccc54)N(C(=O)[C@@H](NC(=O)[C@H](C)NC)C(C)(C)C)C3)ccc2C[C@H]1C(=O)N[C@@H]1CCCc2ccccc21)C(C)(C)C` [Example 54, N^4-((S)-2-((S)-3,3-Dimethyl-2-((S)-2-(methylamino)propanamido)butanoyl)-3-(((R)-1,2,3,4-tetrahydronaphthalen-1-yl)carbamoyl)-1,2,3,4-tetrahydroisoquinolin-7-yl)-N^1-((3S,5S)-1-((S)-3,3-dimethyl-2-((S)-2-(methylamino)propanamido)butanoyl)-5-(((R)-1,2,3,4-tetrahydronaphthalen-1-yl)carbamoyl)pyrrolidin-3-yl)-1H-indole-1,4-dicarboxamide] were, in that order, 76 nM and 21 nM.
The like results for `CN[C@@H](C)C(=O)N[C@H](C(=O)N1C[C@@H](NC(=O)c2ccc(C(=O)Nc3ccc4c(c3)CN(C(=O)[C@@H](NC(=O)[C@H](C)NC)C(C)(C)SC)[C@H](C(=O)N[C@@H]3CCCc5ccccc53)C4)cc2)C[C@H]1C(=O)N[C@@H]1CCCc2ccccc21)C(C)(C)C` [Example 55, N^1-((3S,5S)-1-((S)-3,3-Dimethyl-2-((S)-2-(methylamino)propanamido)butanoyl)-5-(((R)-1,2,3,4-tetrahydronaphthalen-1-yl)carbamoyl)pyrrolidin-3-yl)-N^4—((S)-2-((R)-3-methyl-2-((S)-2-(methylamino)propanamido)-3-(methylthio)butanoyl)-3-(((R)-1,2,3,4-tetrahydronaphthalen-1-yl)carbamoyl)-1,2,3,4-tetrahydroisoquinolin-7-yl)terephthalamide] were, in that order, 9 nM and 4 nM.
The like results for `CN[C@@H](C)C(=O)N[C@H](C(=O)N1C[C@@H](NC(=O)c2ccc(C(=O)Nc3ccc4c(c3)CN(C(=O)[C@@H](NC(=O)[C@H](C)NC)C(C)(C)SCC(=O)OC)[C@H](C(=O)N[C@@H]3CCCc5ccccc53)C4)cc2)C[C@H]1C(=O)N[C@@H]1CCCc2ccccc21)C(C)(C)C` [Example 56, Methyl 2-(((R)-4-((S)-7-(4-(((3S,5S)-1-((S)-3,3-dimethyl-2-((S)-2-(methylamino)propanamido)butanoyl)-5-(((R)-1,2,3,4-tetrahydronaphthalen-1-yl)carbamoyl)pyrrolidin-3-yl)carbamoyl)benzamido)-3-(((R)-1,2,3,4-tetrahydronaphthalen-1-yl)carbamoyl)-3,4-dihydroisoquinolin-2(1H)-yl)-2-methyl-3-((S)-2-(methylamino)propanamido)-4-oxobutan-2-yl)thio)acetate] were, in that order, 17 nM and 12 nM.
With `CN[C@@H](C)C(=O)N[C@H](C(=O)N1C[C@@H](NC(=O)c2ccc(C(=O)Nc3ccc4c(c3)CN(C(=O)[C@@H](NC(=O)[C@H](C)NC)C(C)(C)SCC(=O)O)[C@H](C(=O)N[C@@H]3CCCc5ccccc53)C4)cc2)C[C@H]1C(=O)N[C@@H]1CCCc2ccccc21)C(C)(C)C` [Example 57, 2-(((R)-4-((S)-7-(4-(((3S,5S)-1-((S)-3,3-Dimethyl-2-((S)-2-(methylamino)propanamido)butanoyl)-5-(((R)-1,2,3,4-tetrahydronaphthalen-1-yl)carbamoyl)pyrrolidin-3-yl)carbamoyl)benzamido)-3-(((R)-1,2,3,4-tetrahydronaphthalen-1-yl)carbamoyl)-3,4-dihydroisoquinolin-2(1H)-yl)-2-methyl-3-((S)-2-(methylamino)propanamido)-4-oxobutan-2-yl)thio)acetic acid], the IC50 was found to be 10 nM in assay [1] and 6 nM in assay [2].
As for `CN[C@@H](C)C(=O)N[C@H](C(=O)N1C[C@@H](NC(=O)c2ccc(C(=O)Nc3ccc4c(c3)CN(C(=O)[C@@H](NC(=O)[C@H](C)NC)C(C)(C)SCC(=O)N3CCCCC3)[C@H](C(=O)N[C@@H]3CCCc5ccccc53)C4)cc2)C[C@H]1C(=O)N[C@@H]1CCCc2ccccc21)C(C)(C)C` [Example 58, N^1-((3S,5S)-1-((S)-3,3-Dimethyl-2-((S)-2-(methylamino)propanamido)butanoyl)-5-(((R)-1,2,3,4-tetrahydronaphthalen-1-yl)carbamoyl)pyrrolidin-3-yl)-N^4—((S)-2-((R)-3-methyl-2-((S)-2-(methylamino)propanamido)-3-((2-oxo-2-(piperidin-1-yl)ethyl)thio)butanoyl)-3-(((R)-1,2,3,4-tetrahydronaphthalen-1-yl)carbamoyl)-1,2,3,4-tetrahydroisoquinolin-7-yl)terephthalamide], the IC50 in assay [1] is 27 nM; in assay [2] it was 18 nM.

The values are drawn from patent publication US9783573B2, “IAP antagonists” (BRISTOL-MYERS SQUIBB COMPANY, priority 2012, dated 2017).
